One data set concerns the target T1, CYP2B6 (Homo sapiens, UniProt P20813).
T1 sequence (P20813 1-491): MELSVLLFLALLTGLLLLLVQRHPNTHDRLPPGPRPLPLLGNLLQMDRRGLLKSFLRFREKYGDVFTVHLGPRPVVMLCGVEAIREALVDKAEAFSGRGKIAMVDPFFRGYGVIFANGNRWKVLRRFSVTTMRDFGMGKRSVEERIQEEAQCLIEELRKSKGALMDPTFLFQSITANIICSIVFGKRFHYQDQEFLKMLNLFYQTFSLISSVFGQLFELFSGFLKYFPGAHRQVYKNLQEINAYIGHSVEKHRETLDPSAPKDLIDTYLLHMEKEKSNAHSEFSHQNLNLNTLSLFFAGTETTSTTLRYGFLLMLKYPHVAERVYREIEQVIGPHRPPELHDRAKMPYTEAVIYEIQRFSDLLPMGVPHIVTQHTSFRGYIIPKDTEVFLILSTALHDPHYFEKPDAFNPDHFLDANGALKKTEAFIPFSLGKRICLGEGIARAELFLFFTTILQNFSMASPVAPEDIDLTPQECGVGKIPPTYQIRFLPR
The experiment in a line: CYP inhibition in human liver microsomes, CYP2B6. It is filed as in vitro ADME. Conditions: HLM, marker substrate Bupropion. On the procedure: . The inhibition of CYP2B6 and 3A4 (when midazolam was used as the substrate) by ZB716 was not observed. The inhibitory potential of ZB716 on human CYP enzyme activities appears relatively low.
The final concentrations of ZB716 in the incubation system were 0, 0.05, 0.15, 0.5, 1.5, 5, and 15 µM (final organic solvent concentration ≤ 1%). […] . […] The concentrations of the isoform-specific metabolites derived from marker substrates were measured by UPLC–MS/MS. The IC50 values were calculated from the percentages of the rate of the metabolite formation relative to non-inhibited controls vs. the concentrations of ZB716 or positive control inhibitors. All incubations were performed in triplicate. The mean of the enzyme activity (% of non-inhibited control) for each concentration was plotted against the log inhibitor concentration, and fitted to an IC50 curve.

A short description of data set [1]: Metabolic stability in human hepatocytes. The class given is in vitro ADME. On the procedure:
(§1) Hepatocytes of humans (#X008001), dogs (#M00205), rats (#M00005), and mice (#M005052) were purchased from BioIVT, NY, USA. Monkey hepatocytes were procured from RILD, Shanghai, China. The metabolic stability of ZB716 in human, monkey, dog, rat and mouse hepatocytes was investigated by incubating ZB716 with human, monkey, dog, rat, and mouse hepatocytes (0.5 × 10^6 cells/mL), or with incubation medium only.
(§2) parent disappearance vs. incubation time curve.
(§3) Scaled-up Clint = kV/N × Scaling Factor
(§4) metabolite formed during the reaction.

The test system of a further data set is human hepatocytes. The experiment in a line: Metabolic stability in human hepatocytes. The class given is in vitro ADME. Conditions: 1 μM. On the procedure:
as §1, §2, §3, §4

The nature of data set [2]: Metabolic stability in dog hepatocytes. The class given is in vitro ADME. On the procedure:
as §1, §2, §3, §4

In another data set the test system is dog hepatocytes. As to the kind of experiment: Metabolic stability in dog hepatocytes. To be noted: 1 μM. The class given is in vitro ADME. On the procedure:
as §1, §2, §3, §4

Another data set addresses CYP3A5 (Homo sapiens, UniProt P20815). The experiment in a line: CYP phenotyping, recombinant CYP3A5.
Setting [3] is: read-out: Estimated In Vitro t1/2.

Several values for one entry are separate records, joined by “and”; a condition that tells them apart may be missing. Equal entries are not always repeated. Entries after “also recorded” stand apart in the source; their conditions may differ.

Chain of CYP3A5 (P20815 whole entry): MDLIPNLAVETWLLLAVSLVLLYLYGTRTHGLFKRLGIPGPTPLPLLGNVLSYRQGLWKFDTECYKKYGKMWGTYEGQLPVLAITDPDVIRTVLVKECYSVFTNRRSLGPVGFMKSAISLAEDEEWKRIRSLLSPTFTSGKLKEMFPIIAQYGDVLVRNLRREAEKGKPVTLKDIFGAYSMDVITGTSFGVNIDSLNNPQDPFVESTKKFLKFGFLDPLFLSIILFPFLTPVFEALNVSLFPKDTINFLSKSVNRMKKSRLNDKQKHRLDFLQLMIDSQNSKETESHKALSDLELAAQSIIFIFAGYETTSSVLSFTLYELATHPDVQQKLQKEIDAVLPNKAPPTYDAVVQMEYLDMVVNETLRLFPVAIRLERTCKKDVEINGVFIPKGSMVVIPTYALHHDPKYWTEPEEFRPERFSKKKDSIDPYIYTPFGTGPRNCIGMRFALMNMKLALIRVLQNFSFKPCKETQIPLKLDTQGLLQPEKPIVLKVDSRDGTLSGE
Description for CYP3A5: Bactosomes prepared from E. coli that heterologously expressed individual human CYP isoforms together with human CYP reductase were obtained from CYPEX LTD (Scotland, UK), and stored at −80 °C prior to use. […] Timepoints were taken at 0, 5, 10, 15, 20, and 30 min. Substrate disappearance was used to calculate intrinsic clearance (Clint) and half-life (t1/2). All incubations were performed in triplicate. […] The chemical inhibitors for CYP1A2, 2A6, 2B6, 2C8, 2C9, 2C19, 2D6, and 3A4 were furafylline, tranylcypromine, ticlopidine, montelukast, sulfaphenazole, N-3-benzylnirvanol, quinidine, and ketoconazole, respectively. Timepoints were collected at 0, 15, 30, 45, and 60 min, and the remaining percentage of the parent drug at each timepoint was calculated (the calculation details are available in the Supplementary Materials). All incubations were performed in triplicate.
The slope, k, was determined by linear regression of the natural logarithm of percent parent disappearance vs. incubation time curve. Peak areas for test article and internal standard were determined from extracted ion chromatograms. The peak area ratio was used to calculated for the results.
The half-life value (t1/2 rCYPi) was determined from the slope value:
Conversion of the t1/2 rCYPi (in min) into the intrinsic clearance (Clint rCYPi in μL/min/pmol) was done using the following equation:
1.3.2 For inhibition ratio (%) (Liver microsomes with and without inhibitors) The slope value, k, was determined by linear regression of the natural logarithm of the remaining percentage of the parent drug vs. incubation time curve. If the turnover was not significant (T-test with p<0.05 was not obtained) and the percentage remaining at last time point was ≥ 80%, the k value was

A word on the CLint scaled: it is a measure of how fast metabolising enzymes remove a compound, apart from limits set by blood flow. On to `C[C@]12CC[C@@H]3c4ccc(B(O)O)cc4C[C@@H](CCCCCCCCC[S+]([O-])CCCC(F)(F)C(F)(F)F)[C@H]3[C@@H]1CC[C@@H]2O` (some centres unmarked) [ZB716, fulvestrant-3-boronic acid], for which the IC50 entry against CYP2B6 is recorded as “not observed; also recorded: No Inhibition”. The values for the half-life at 1 μM in data set [1] (setting [3]) and in data set [2] (setting [3]) were 34.9 ± 1 min and 26.7 ± 0.4 min, respectively. For the same compound, the hepatocyte CLint at 1 μM in data set [1] (read-out: In Vitro Clint) amounted to 39.7 ± 1.1 µL/min/1e6 cells; in data set [2] (read-out: In Vitro Clint), 51.9 ± 0.7 µL/min/1e6 cells. Moreover, the values for the CLint scaled at 1 μM in data set [1] (read-out: Scaled-Up Clint) and in data set [2] (read-out: Scaled-Up Clint) were 6.06 ± 0.18 L/h/kg and 21.4 ± 0.3 L/h/kg, respectively. Further, the entries for the “Remaining at 120 min” value in the data set on human hepatocytes and with dog hepatocytes were 7.98 ± 0.7% and 6.99 ± 0.46%, respectively. Further, the half-life at 2 µM on CYP3A5 (human) is 2.06 ± 0.33 min. Further, the Clint on CYP3A5 (recombinant CYP3A5, 2 µM ZB716) is 6.86 µL/min/pmol CYP and 6.86 ± 1.12 µL/min/pmol CYP.

The values are drawn from paper PMC8400955 (Pharmaceuticals, 2021).
